Test results taken from patent US11566007B2, “Ras inhibitors” (Revolution Medicines, Inc., priority 2019, dated 2023).
Where two headings read alike, the source gives them in different places.

What was measured:
[1] = system: NCI-H358 cells (K-Ras G12C); assay: Potency assay: pERK in NCI-H358 cells; format: cell-based, human; details: H358 KRAS G12C, read-out: pERK EC50
Protocol: The purpose of this assay is to measure the ability of test compounds to inhibit K-Ras in cells. […] This procedure measures a decrease in cellular pERK in response to test compounds.
NCI-H358 cells were grown and maintained using media and procedures recommended by the ATCC. On the day prior to compound addition, cells were plated in 384-well cell culture plates (40 μl/well) and grown overnight in a 37° C., 5% CO2 incubator. Test compounds were prepared in 10, 3-fold dilutions in DMSO, with a high concentration of 10 mM. On the day of assay, 40 nL of test compound was added to each well of cell culture plate using an Echo550 liquid handler (LabCyte®). Concentrations of test compound were tested in duplicate. After compound addition, cells were incubated 4 hours at 37° C., 5% CO2. Following incubation, culture medium was removed and cells were washed once with phosphate buffered saline.
In some experiments, cellular pERK level was determined using the AlphaLISA SureFire Ultra p-ERK1/2 Assay Kit (PerkinElmer). Cells were lysed in 25 μL lysis buffer, with shaking at 600 RPM at room temperature. […] After a 2-hour incubation in the dark, 5 μL donor mix was added, plate was sealed, and incubated 2 hours at room temperature. Signal was read on an Envision plate reader (PerkinElmer) using standard AlphaLISA settings. Analysis of raw data was carried out in Excel (Microsoft) and Prism (GraphPad). Signal was plotted vs. the decadal logarithm of compound concentration, and IC50 was determined by fitting a 4-parameter sigmoidal concentration response model.
In other experiments, cellular pERK was determined by In-Cell Western. […] Fixed cells were washed 4 times for 5 minutes with TBS containing 0.1% Triton X-100 (TBST) and then blocked with 100 μL Odyssey blocking buffer (LI-COR) for 60 minutes at room temperature. […] Cells were washed 4 times for 5 minutes with TBST. Secondary antibody (IR-800CW rabbit, LI-COR, diluted 1:800) and DNA stain DRAQS (LI-COR, diluted 1:2000) were added and incubated 1-2 hours at room temperature. Cells were washed 4 times for 5 minutes with TBST. Plates were scanned on a Li-COR Odyssey CLx Imager. Analysis of raw data was carried out in Excel (Microsoft) and Prism (Graph Pad). Signal was plotted vs. the decadal logarithm of compound concentration, and IC50 was determined by fitting a 4-parameter sigmoidal concentration response model.

NCI-H358 (K-Ras G12C) = assay: CellTiter-Glo cell viability assay, NCI-H358; format: cell-based, human; details: class symbols
Protocol: Note—The following protocol describes a procedure for monitoring cell viability of K-Ras mutant cancer cell lines in response to a compound of the invention. Other RAS isoforms may be employed, though the number of cells to be seeded will vary based on cell line used.
Test compounds (132.5 nL) were directly dispensed into the assay plates containing cells. […] On day 5, assay plates and their contents were equilibrated to room temperature for approximately 30 minutes. […] Luminescence was measured using the PerkinElmer Enspire. Data were normalized by the following: (Sample signal/Avg. DMSO)*100. The data were fit using a four-parameter logistic fit.

[2] = Homo sapiens, NCI-H358, 120 h, NCI-H358, 5-day treatment, read-out: Additional H358 Cell Viability assay data (K-Ras G12C, IC50)

EC50 ([1]; Homo sapiens, NCI-H358) [µM] | IC50 (NCI-H358 (K-Ras G12C); [2]) [µM] | SMILES | EC50 [1] [µM] | IC50 (NCI-H358 (K-Ras G12C); NCI-H358, 5-day treatment, read-out: Additional H358 Cell Viability assay data (K-Ras G12C, IC50)) [µM] | IC50 (NCI-H358 (K-Ras G12C); Homo sapiens, NCI-H358, 120 h, read-out: Additional H358 Cell Viability assay data (K-Ras G12C, IC50, uM), NCI-H358, 5-day treatment) [µM]
 |  | C=CC(=O)N1CC[C@H](C(=O)N(C)[C@H](C(=O)N[C@H]2Cc3cc(O)cc(c3)-c3ccc4c(c3)c(c(-c3cnccc3COC)n4CC)CC(C)(C)COC(=O)[C@@H]3CCCN(N3)C2=O)C(C)C)C1 [Example A28, (2S)-N-[(8S,14S)-22-ethyl-4-hydroxy-21-[4-(methoxymethyl)pyridin-3-yl]-18,18-dimethyl-9,15-dioxo-16-oxa-10,22,28-triazapentacyclo[18.5.2.1^[2,6].1^[10,14].0^[23,27]]nonacosa-1(26),2,4,6(29),20,23(27),24-heptaen-8-yl]-3-methyl-2-[N-methyl-1-[(3S)-1-(prop-2-enoyl)pyrrolidin-3-yl]formamido]butanamide] | < 5 | < 0.01 | 
< 5 | 0.1 to 1 | C=CC(=O)N1CC[C@H](C(=O)N(C)[C@H](C(=O)N[C@H]2Cc3cc(O)cc(c3)-c3ccc4c(c3)c(c(-c3ccccc3[C@@H](C)OC)n4CC)CC(C)(C)COC(=O)[C@@H]3CCCN(N3)C2=O)C(C)C)C1 [Example A29] |  |  | 
< 5 | 0.01 to 0.1 | C=CC(=O)N1CC[C@H](C(=O)N(C)[C@H](C(=O)N[C@H]2Cc3cc(O)cc(c3)-c3ccc4c(c3)c(c(-c3cccc(CN(C)C)c3)n4CC)CC(C)(C)COC(=O)[C@@H]3CCCN(N3)C2=O)C(C)C)C1 [Example A30] |  |  | 
< 5 | 0.01 to 0.1 | C=CC(=O)N1CC2(CCN([C@H](C(=O)N[C@H]3Cc4cc(O)cc(c4)-c4ccc5c(c4)c(c(-c4ccccc4CCOC)n5CC)CC(C)(C)COC(=O)[C@@H]4CCCN(N4)C3=O)C(C)C)C2=O)C1 [Example A31] |  |  | 
< 5 | 0.1 to 1 | C=CC(=O)N1CCC(C(=O)N(C)[C@H](C(=O)N[C@H]2Cc3cc(O)cc(c3)-c3ccc4c(c3)c(c(-c3ccccc3CN(C)C)n4CC)CC(C)(C)COC(=O)[C@@H]3CCCN(N3)C2=O)C(C)C)CC1 [Example A33] |  |  | 
< 5 | 0.01 to 0.1 | C=CC(=O)N1CC[C@H](C(=O)N(C)[C@H](C(=O)N[C@H]2Cc3cc(O)cc(c3)-c3ccc4c(c3)c(c(-c3ccc5cc(CN(C)C)n(C)c5c3)n4CC)CC(C)(C)COC(=O)[C@@H]3CCCN(N3)C2=O)C(C)C)C1 [Example A35] |  |  | 
< 5 | < 0.01 | CCn1c(-c2ccccc2CCOC)c2c3cc(ccc31)-c1cc(O)cc(c1)C[C@H](NC(=O)[C@H](C(C)C)N(C)C(=O)[C@H]1CCN(C(=O)C#CCN(C)C)C1)C(=O)N1CCC[C@H](N1)C(=O)OCC(C)(C)C2 [Example A38] |  |  | 
< 5 | 0.01 to 0.1 | C=CC(=O)N1C[C@H](C)[C@H](C(=O)N(C)[C@H](C(=O)N[C@H]2Cc3cc(O)cc(c3)-c3ccc4c(c3)c(c(-c3ccccc3CCOC)n4CC)CC(C)(C)COC(=O)[C@@H]3CCCN(N3)C2=O)C(C)C)C1 [Example A41] |  |  | 
< 5 | 0.01 to 0.1 | C=CC(=O)N1CC[C@H](C(=O)N(C)[C@H](C(=O)N[C@H]2Cc3cc(O)cc(c3)-c3ccc4c(c3)c(c(-c3cccnc3COCC)n4CC)CC(C)(C)COC(=O)[C@@H]3CCCN(N3)C2=O)C(C)C)C1 [Example A44] |  |  | 
< 5 | 0.01 to 0.1 | C=CC(=O)N1CC[C@H](C(=O)N(C)[C@H](C(=O)N[C@H]2Cc3cc(O)cc(c3)-c3ccc4c(c3)c(c(-c3ccc(CN(C)C)cc3COC)n4CC)CC(C)(C)COC(=O)[C@@H]3CCCN(N3)C2=O)C(C)C)C1 [Example A51] |  |  | 
< 5 | 0.01 to 0.1 | C=CC(=O)N1C[C@H](C)[C@H](C(=O)N(C)[C@H](C(=O)N[C@H]2Cc3cc(O)cc(c3)-c3ccc4c(c3)c(c(-c3ccccc3CN(C)C)n4CC)CC(C)(C)COC(=O)[C@@H]3CCCN(N3)C2=O)C(C)C)C1 [Example A52] |  |  | 
< 5 | 0.01 to 0.1 | CCn1c(-c2cccnc2COC)c2c3cc(ccc31)-c1cc(O)cc(c1)C[C@H](NC(=O)[C@H](C(C)C)N(C)C(=O)[C@H]1CCN(C(=O)/C=C/CN(C)C)C1)C(=O)N1CCC[C@H](N1)C(=O)OCC(C)(C)C2 [Example A54, (2S)-2-{1-[(3S)-1-[(2E)-4-(dimethylamino)but-2-enoyl]pyrrolidin-3-yl]-N-methylformamido}-N-[(8S,14S)-22-ethyl-4-hydroxy-21-[2-(methoxymethyl)pyridin-3-yl]-18,18-dimethyl-9,15-dioxo-16-oxa-10,22,28-triazapentacyclo[18.5.2.1^2,^6.1^10,^14.0^23,^27]nonacosa-1(26),2,4,6(29),20,23(27),24-heptaen-8-yl]-3-methylbutanamide] |  |  | 
< 5 | < 0.01 | C=CC(=O)N1CC[C@H](C(=O)N(C)[C@H](C(=O)N[C@H]2Cc3cc(O)cc(c3)-c3ccc4c(c3)c(c(-c3cccnc3COC)n4CC)CC(C)(C)COC(=O)[C@@H]3CCCN(N3)C2=O)C2CCCC2)C1 [Example A55] |  |  | 

SMILES | EC50 ([1]; Homo sapiens, NCI-H358) [µM] | IC50 (NCI-H358 (K-Ras G12C); [2]) [µM] | EC50 [1] [µM] | IC50 (NCI-H358 (K-Ras G12C); NCI-H358, 5-day treatment, read-out: Additional H358 Cell Viability assay data (K-Ras G12C, IC50)) [µM] | IC50 (NCI-H358 (K-Ras G12C); Homo sapiens, NCI-H358, 120 h, read-out: Additional H358 Cell Viability assay data (K-Ras G12C, IC50, uM), NCI-H358, 5-day treatment) [µM]
C=CC(=O)N1CC[C@H](C(=O)N(C)[C@H](C(=O)N[C@H]2Cc3cc(O)cc(c3)-c3ccc4c(c3)c(c(-c3ccccc3COC)n4CC)CC(C)(C)COC(=O)[C@@H]3CCCN(N3)C2=O)C2CCCC2)C1 [Example A27] | < 5 | 0.01 to 0.1 |  |  | 
C=CC(=O)N1CC[C@H](C(=O)N(C)[C@H](C(=O)N[C@H]2Cc3cc(O)cc(c3)-c3ccc4c(c3)c(c(-c3ccc(C5CCN(C)CC5)cc3)n4CC)CC(C)(C)COC(=O)[C@@H]3CCCN(N3)C2=O)C(C)C)C1 [Example A39] | < 5 | 0.01 to 0.1 |  |  | 
C=CC(=O)N1CC[C@H](C(=O)N(C)[C@H](C(=O)N[C@H]2Cc3cc(O)cc(c3)-c3ccc4c(c3)c(c(-c3ccc5c(c3)CCN(C)C5)n4CC)CC(C)(C)COC(=O)[C@@H]3CCCN(N3)C2=O)C(C)C)C1 [Example A40] | < 5 | 0.01 to 0.1 |  |  | 
C=CC(=O)N1CC[C@H](C(=O)N(C)[C@H](C(=O)N[C@H]2Cc3cc(N)cc(c3)-c3ccc4c(c3)c(c(-c3ccccc3COC)n4CC)CC(C)(C)COC(=O)[C@@H]3CCCN(N3)C2=O)C(C)C)C1 [Example A42] | < 5 | 0.1 to 1 |  |  | 
C=CC(=O)N1C[C@H](C)[C@H](C(=O)N(C)[C@H](C(=O)N[C@H]2Cc3cc(O)cc(c3)-c3ccc4c(c3)c(c(-c3ccccc3CN(C)C)n4CC)CC(C)(C)COC(=O)[C@@H]3CCCN(N3)C2=O)C2CCCC2)C1 [Example A43] | < 5 | 0.01 to 0.1 |  |  | 
C=CC(=O)N1CC[C@H](C(=O)N(C)[C@H](C(=O)N[C@H]2Cc3cc(O)cc(c3)-c3ccc4c(c3)c(c(-c3cccnc3)n4CC)CC(C)(C)COC(=O)[C@@H]3CCCN(N3)C2=O)C(C)C)C1 [Example A45] | < 5 | 0.01 to 0.1 |  |  | 
CCn1c(-c2ccccc2CN(C)C)c2c3cc(ccc31)-c1cc(O)cc(c1)C[C@H](NC(=O)[C@H](C(C)C)N(C)C(=O)c1ccc(NC(=O)/C=C/CN(C)C)cn1)C(=O)N1CCC[C@H](N1)C(=O)OCC(C)(C)C2 [Example A46] | < 5 | > 1 |  |  | 
CCn1c(-c2ccccc2CN(C)C)c2c3cc(ccc31)-c1cc(O)cc(c1)C[C@H](NC(=O)[C@H](C(C)C)N(C)C(=O)[C@H]1CCN(C(=O)/C=C/CN(C)C)C1)C(=O)N1CCC[C@H](N1)C(=O)OCC(C)(C)C2 [Example A47] | < 5 | 0.01 to 0.1 |  |  | 
C=CC(=O)N1CC[C@H](C(=O)N(C)[C@H](C(=O)N[C@H]2Cc3cc(O)cc(c3)-c3ccc4c(c3)c(c(-c3ccc5c(c3)OCCN5C)n4CC)CC(C)(C)COC(=O)[C@@H]3CCCN(N3)C2=O)C(C)C)C1 [Example A50] | < 5 | 0.1 to 1 |  |  | 
C=CC(=O)N1C[C@H](C)[C@H](C(=O)N(C)[C@H](C(=O)N[C@H]2Cc3cc(O)cc(c3)-c3ccc4c(c3)c(c(-c3cccnc3COC)n4CC)CC(C)(C)COC(=O)[C@@H]3CCCN(N3)C2=O)C(C)C)C1 [Example A56] | < 5 |  |  |  | < 0.01
C=CC(=O)N1C[C@H](C)[C@H](C(=O)N(C)[C@H](C(=O)N[C@H]2Cc3cc(O)cc(c3)-c3ccc4c(c3)c(c(-c3cccnc3COC)n4CC)CC(C)(C)COC(=O)[C@@H]3CCCN(N3)C2=O)C2CCCC2)C1 [Example A57] | < 5 | < 0.01 |  |  | 
